Results from patent US20240327351A1, “AMIDE AND ETHER SUBSTITUTED N-(1H-INDOL-7-YL)BENZENESULFONAMIDES AND USES THEREOF” (TRIANA BIOMEDICINES, INC., priority 2021, published 2024).

Legend:
DCAF15/RBM39 = DCAF15/RBM39 (Homo sapiens, UniProt Q14498+Q66K64); assay: AlphaLISA compound-induced DCAF15-RBM39 ternary complex formation; type: binding; conditions: His-tagged DCAF15 complex and biotin-carrying RBM39
Protocol: Example 6: Quantitative Evaluation of Compound-Induced Ternary Complex Formation Using Amplified Luminescent Proximity Homogeneous Assay
Compound-induced DCAF15-RBM39 ternary complex formation was monitored using AlphaLISA® assays (Perkin Elmer, Waltham, MA). Test compounds were first collected in a 384-well microplate (cat. #781280, Grenier Bio-One, Monroe, NC) as 2 mM stocks in 100% dimethyl sulfoxide (DMSO). These stocks were then serially diluted in DMSO by 3-fold into a new plate (cat. #781280, Grenier Bio-One, Monroe, NC) using a Mosquito HTS dispenser (mosquito@ HTS, SPT Labtech, Boston, MA). 0.2 ul of these diluted stocks were then dispensed into a 384-well Optiplate (cat. #6007290, Perkin Elmer, Waltham, MA) in duplicate wells, to assemble the final assay plate consisting of duplicated dose ranges. Separately, a protein mixture consisting of His-tagged DCAF15 complex and biotin-carrying RBM39, each at 408 nM (2.04×), was prepared in 50 mM HEPES, pH 7.5, 100 mM NaCl, 2 mM MgCl2, 0.1% BSA, 2 mM TCEP, 0.05% Tween-20 (dilution buffer). 9.8 ul of this protein mixture was then mixed with the compounds in the assay plate and incubated for one hour at room temperature. Reaction mixtures with no compounds added were included as negative controls, while a His-tagged and biotinylated GST protein was included to track general assay performance. Nickel Chelate AlphaLISA Acceptor beads (cat. #AL108M, Perkin Elmer, MA) and AlphaScreen Streptavidin Donor beads (cat. #6760002, Perkin Elmer, Waltham, MA) were prepared separately in the dilution buffer as 4× stocks (80 ug/ml). The beads were then added to the assay plate sequentially with incubation at room temperature for 1-2 hours after each addition. Signals were recorded using EnVision 2104 Multilabel Plate Reader (Perkin Elmer, Waltham, MA) and titration curves were generated in GraphPad Prism (7.00, GraphPad, La Jolla, CA).

DCAF15 = DCAF15 (Homo sapiens, UniProt Q66K64); assay: HTRF competition assay, binary interaction between compounds and DCAF15; type: binding; conditions: competition with Alexa Fluor 647 tracer, His-tagged DCAF15 complex
Protocol: Example 7: Measurement of Binary Interaction Between Compounds And DCAF15 Using Homogeneous Time Resolved Fluorescence (HTRF)
DCAF15 interactions with test compounds were monitored using HTRF competition assays (Cisbio, Bedford, MA). Test compounds were first collected in a 384-well microplate (cat. #781280, Grenier Bio-One, Monroe, NC) as 10 mM stocks in 100% dimethyl sulfoxide (DMSO). A second stock plate (cat. #781280, Grenier Bio-One, Monroe, NC) was prepared through 3-fold serial dilution in DMSO of the afore-mentioned stocks using a Mosquito HTS dispenser (mosquito@ HTS, SPT Labtech, Boston, MA). 0.2 ul of these diluted stocks were then dispensed into a 384-well Optiplate (cat. #6007290, Perkin Elmer, Waltham, MA) in duplicate wells, to assemble the assay plate. The tracer molecule containing an Alexa Fluor 647 probe was prepared in 25 mM HEPES pH 7.5, 100 mM NaCl, 0.1 mg/ml BSA, 0.005% Tween 20, 0.5 mM TCEP (dilution buffer) to 612 nM (2.04×). Separately, His-tagged DCAF15 complex was prepared at 32 nM (4×) in the dilution buffer, and mAb Anti-6His-Eu cryptate Gold (cat. #61H12KLA, Cisbio, Bedford, MA) at 4× dilution in the detection buffer (cat. #61 DB9RDF, Cisbio, Bedford, MA). These two solutions were mixed and incubated for 15 min at room temperature. 9.8 ul of the tracer solution and 10 ul of the DCAF15/mAb Anti-6His-Eu cryptate Gold mixture were added sequentially to each well in the assay plate. Reaction mixtures with no DCAF15 added were included as positive controls. The final mixture was incubated for an hour at room temperature and spun down briefly before data collection at 615 nm and 666 nm using En Vision 2104 Multilabel Plate Reader (Perkin Elmer, Bedford, MA). Binding was estimated based on ratiometric analysis and titration curves were generated in GraphPad Prism (7.00, GraphPad, La Jolla, CA).

Cc1ccnc(CNC(=O)c2ccc(S(=O)(=O)Nc3ccc(Cl)c4c(Cl)c[nH]c34)c(F)c2)c1 [Compound 179]
EC50 (DCAF15/RBM39): < 1 µM
IC50 (DCAF15): 1 to 10 µM

CCOCCOc1ccc(S(=O)(=O)Nc2ccc(Cl)c3c(Cl)c[nH]c23)cc1C(C)C [Compound 232]
EC50 (DCAF15/RBM39): 1 to 10 µM
IC50 (DCAF15): > 100 µM

O=C(NCC1CCN(CCCc2ccccc2)CC1)c1cccc(S(=O)(=O)Nc2ccc(Cl)c3c(Cl)c[nH]c23)c1F [Compound 166]
EC50 (DCAF15/RBM39): < 1 µM
IC50 (DCAF15): 1 to 10 µM

CNC(=O)c1cccc(S(=O)(=O)Nc2ccc(Cl)c3c(Cl)c[nH]c23)c1F [Compound 236]
EC50 (DCAF15/RBM39): < 1 µM
IC50 (DCAF15): 1 to 10 µM

O=C(c1cccc(S(=O)(=O)Nc2ccc(Cl)c3c(Cl)c[nH]c23)c1F)N1CC(N2CCc3ccccc32)C1 [Compound 214]
EC50 (DCAF15/RBM39): 1 to 10 µM
IC50 (DCAF15): 1 to 10 µM

CC(C)CCOc1ccc(S(=O)(=O)Nc2ccc(Cl)c3c(Cl)c[nH]c23)cc1 [Compound 230]
EC50 (DCAF15/RBM39): 1 to 10 µM
IC50 (DCAF15): 1 to 10 µM

O=C(NCCOCC1CC1)c1ccc(S(=O)(=O)Nc2ccc(Cl)c3c(Cl)c[nH]c23)c(F)c1 [Compound 187]
EC50 (DCAF15/RBM39): < 1 µM
IC50 (DCAF15): 1 to 10 µM

O=C(N[C@@H]1CCC[C@@H](Oc2ccc(S(=O)(=O)Nc3ccc(Cl)c4c(Cl)c[nH]c34)cc2)C1)OCc1ccccc1 [Compound 13]
EC50 (DCAF15/RBM39): > 100 µM
IC50 (DCAF15): > 100 µM

CS(=O)(=O)c1ccc(CCOc2ccc(S(=O)(=O)Nc3ccc(Cl)c4c(Cl)c[nH]c34)cc2)cc1 [Compound 77]
EC50 (DCAF15/RBM39): 1 to 10 µM
IC50 (DCAF15): > 100 µM

CN1CCN(C(=O)c2ccc(S(=O)(=O)Nc3ccc(Cl)c4c(Cl)c[nH]c34)cc2)CC1 [Compound 223]
EC50 (DCAF15/RBM39): < 1 µM
IC50 (DCAF15): 1 to 10 µM

O=S(=O)(Nc1ccc(Cl)c2c(Cl)c[nH]c12)c1ccc(Oc2ccc(F)cc2)cc1 [Compound 36]
EC50 (DCAF15/RBM39): 1 to 10 µM
IC50 (DCAF15): 10 to 100 µM

O=S(=O)(Nc1ccc(Cl)c2c(Cl)c[nH]c12)c1cccc(OCCCN2CCCc3ccccc32)c1 [Compound 114]
EC50 (DCAF15/RBM39): 1 to 10 µM
IC50 (DCAF15): > 100 µM

CC(C)C[C@H](NC(=O)c1ccc(S(=O)(=O)Nc2ccc(Cl)c3c(Cl)c[nH]c23)c(F)c1)c1nc2ccccc2[nH]1 [Compound 212]
EC50 (DCAF15/RBM39): 1 to 10 µM
IC50 (DCAF15): 1 to 10 µM

CN1C[C@@H](NC(=O)c2cccc(S(=O)(=O)Nc3ccc(Cl)c4c(Cl)c[nH]c34)c2F)CCC1=O [Compound 158]
EC50 (DCAF15/RBM39): < 1 µM
IC50 (DCAF15): < 1 µM

O=S(=O)(Nc1ccc(Cl)c2c(Cl)c[nH]c12)c1cccc(O[C@H]2CC[C@H](N3CCOCC3)CC2)c1 [Compound 16]
EC50 (DCAF15/RBM39): < 1 µM
IC50 (DCAF15): 1 to 10 µM

O=C(c1ccc(S(=O)(=O)Nc2ccc(Cl)c3c(Cl)c[nH]c23)c(F)c1)N1CC[C@H](n2ccnn2)C1 [Compound 217]
EC50 (DCAF15/RBM39): < 1 µM
IC50 (DCAF15): < 1 µM

CCc1nc(CN(C)C(=O)c2cccc(S(=O)(=O)Nc3ccc(Cl)c4c(Cl)c[nH]c34)c2F)no1 [Compound 176]
EC50 (DCAF15/RBM39): < 1 µM
IC50 (DCAF15): 1 to 10 µM

O=S(=O)(Nc1ccc(Cl)c2c(Cl)c[nH]c12)c1cccc(OC[C@H]2[C@@H]3CNC[C@@H]32)c1 [Compound 47]
EC50 (DCAF15/RBM39): < 1 µM
IC50 (DCAF15): 10 to 100 µM

CC(C)c1cc(S(=O)(=O)Nc2ccc(Cl)c3c(Cl)c[nH]c23)ccc1OCc1ccccc1 [Compound 233]
EC50 (DCAF15/RBM39): 10 to 100 µM
IC50 (DCAF15): 10 to 100 µM

O=S(=O)(Nc1ccc(Cl)c2c(Cl)c[nH]c12)c1cccc(OCCCN2CC3(COC3)C2)c1 [Compound 108]
EC50 (DCAF15/RBM39): < 1 µM
IC50 (DCAF15): > 100 µM

O=S(=O)(Nc1ccc(Cl)c2c(Cl)c[nH]c12)c1cccc(OC2CCC3(CCNCC3)CC2)c1 [Compound 32]
EC50 (DCAF15/RBM39): 1 to 10 µM
IC50 (DCAF15): 10 to 100 µM

CCN(CC)C(=O)c1ccc(CNC(=O)c2ccc(S(=O)(=O)Nc3ccc(Cl)c4c(Cl)c[nH]c34)c(F)c2)cc1 [Compound 171]
EC50 (DCAF15/RBM39): 1 to 10 µM
IC50 (DCAF15): 1 to 10 µM

CN1CC[C@@H](c2ccc(F)cc2)[C@H](COc2cccc(S(=O)(=O)Nc3ccc(Cl)c4c(Cl)c[nH]c34)c2)C1 [Compound 41]
EC50 (DCAF15/RBM39): < 1 µM
IC50 (DCAF15): 1 to 10 µM

O=S(=O)(Nc1ccc(Cl)c2c(Cl)c[nH]c12)c1ccc(OCCC[C@@H]2CCCN2)cc1 [Compound 97]
EC50 (DCAF15/RBM39): < 1 µM
IC50 (DCAF15): 1 to 10 µM

O=C(NCC1CCN(CCCc2ccccc2)CC1)c1ccc(S(=O)(=O)Nc2ccc(Cl)c3c(Cl)c[nH]c23)c(F)c1 [Compound 167]
EC50 (DCAF15/RBM39): < 1 µM
IC50 (DCAF15): < 1 µM

O=C(NCCCC(=O)N1CCCC1)c1ccc(S(=O)(=O)Nc2ccc(Cl)c3c(Cl)c[nH]c23)c(F)c1 [Compound 207]
EC50 (DCAF15/RBM39): < 1 µM
IC50 (DCAF15): < 1 µM

Cn1cc(CCOc2ccc(S(=O)(=O)Nc3ccc(Cl)c4c(Cl)c[nH]c34)cc2)c2ccccc21 [Compound 93]
EC50 (DCAF15/RBM39): > 100 µM
IC50 (DCAF15): > 100 µM

O=S(=O)(Nc1ccc(Cl)c2c(Cl)c[nH]c12)c1ccc(O[C@H]2CC[C@H](N3CCOCC3)CC2)cc1 [Compound 17]
EC50 (DCAF15/RBM39): < 1 µM
IC50 (DCAF15): 10 to 100 µM

CCOc1cc(N2CCC[C@H](COc3ccc(S(=O)(=O)Nc4ccc(Cl)c5c(Cl)c[nH]c45)cc3)C2)ncn1 [Compound 44]
EC50 (DCAF15/RBM39): 1 to 10 µM
IC50 (DCAF15): > 100 µM

Cc1ccc(CCNC(=O)c2ccc(S(=O)(=O)Nc3ccc(Cl)c4c(Cl)c[nH]c34)c(F)c2)o1 [Compound 199]
EC50 (DCAF15/RBM39): 1 to 10 µM
IC50 (DCAF15): 1 to 10 µM

CCc1nc(CN(C)C(=O)c2ccc(S(=O)(=O)Nc3ccc(Cl)c4c(Cl)c[nH]c34)c(F)c2)no1 [Compound 177]
EC50 (DCAF15/RBM39): < 1 µM
IC50 (DCAF15): 1 to 10 µM

Cc1nc2c(n1C)CCN(C(=O)c1ccc(S(=O)(=O)Nc3ccc(Cl)c4c(Cl)c[nH]c34)c(F)c1)C2 [Compound 229]
EC50 (DCAF15/RBM39): < 1 µM
IC50 (DCAF15): < 1 µM

CNC(=O)c1ccc(F)c(S(=O)(=O)Nc2ccc(Cl)c3c(Cl)c[nH]c23)c1 [Compound 237]
EC50 (DCAF15/RBM39): 1 to 10 µM
IC50 (DCAF15): 10 to 100 µM

CNCCCCCOc1ccc(S(=O)(=O)Nc2ccc(Cl)c3c(Cl)c[nH]c23)cc1 [Compound 144]
EC50 (DCAF15/RBM39): < 1 µM
IC50 (DCAF15): 1 to 10 µM

N[C@H]1CC[C@H](Oc2ccc(S(=O)(=O)Nc3ccc(Cl)c4c(Cl)c[nH]c34)cc2)CC1 [Compound 5]
EC50 (DCAF15/RBM39): < 1 µM
IC50 (DCAF15): 1 to 10 µM

Cc1cnc(CNC(=O)c2cccc(S(=O)(=O)Nc3ccc(Cl)c4c(Cl)c[nH]c34)c2F)cn1 [Compound 183]
EC50 (DCAF15/RBM39): < 1 µM
IC50 (DCAF15): 1 to 10 µM

CN(C)C(=O)c1ccc(CCNC(=O)c2ccc(S(=O)(=O)Nc3ccc(Cl)c4c(Cl)c[nH]c34)c(F)c2)cc1 [Compound 195]
EC50 (DCAF15/RBM39): 1 to 10 µM
IC50 (DCAF15): 1 to 10 µM
